Assay results: patent US20030232986A1, “Inhibitors of caspases” (Vertex Pharmaceuticals Incorporated, priority 1998, published 2003)
Where two headings read alike, the source gives them in different places. Where a SMILES comes first, the peptide text is derived from it. [ ]: non-standard residue; d: D form. The star is where a group is joined. 4Abz = Nc1ccc(C(=O)O)cc1; Aze = O=C(O)[C@@H]1CCN1; Bz = O=C(c1ccccc1)*

Experiments:
[1] = target: T1, Caspase-1 (Homo sapiens, UniProt P29466); assay: Caspase-1 enzyme inhibition (Ki); assay type: biochemical
T1 sequence (P29466 120-297 limits assumed): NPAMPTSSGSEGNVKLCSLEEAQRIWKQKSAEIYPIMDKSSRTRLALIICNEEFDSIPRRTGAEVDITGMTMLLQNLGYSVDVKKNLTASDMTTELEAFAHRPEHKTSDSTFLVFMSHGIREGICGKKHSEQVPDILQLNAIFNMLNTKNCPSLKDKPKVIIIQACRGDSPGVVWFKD
T1 sequence (P29466 317-404 limits assumed): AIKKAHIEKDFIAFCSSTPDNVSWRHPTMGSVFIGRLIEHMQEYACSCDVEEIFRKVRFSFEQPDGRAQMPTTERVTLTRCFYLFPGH
Outline: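 Ki obtained by fitting rate versus inhibitor concentration to the Morrison tight-binding equation for competitive inhibitors, with pNA release read at 405 nm at 37 °C. Substrate Suc-YVAD-pNA (80 μM final) added after 15 min enzyme–inhibitor preincubation in Tris pH 7.5 buffer with DTT and CHAPS.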

[2] = tested on: Human Peripheral Blood Mononuclear Cells (PBMC), mature IL-1β; assay: PBMC cell assay: IL-1β assay with human peripheral blood mononuclear cells; assay type: cell-based; conditions: LPS-stimulated human PBMC, mature IL-1β in supernatant by ELISA
Outline: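 Donor PBMC (suspension at 6×10^6 cells/ml) or adherent-enriched monocytes were stimulated with 5 ng/ml LPS (final) alongside 5–6 compound dilutions bracketing the ICE Ki, at 0.1% DMSO final, for 16–18 hr at 37° C, 5% CO2. Mature IL-1β in supernatants was measured by ELISA; IC50 was calculated relative to LPS-only controls.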

[3] = tested on: Human whole blood, IL-1β production; assay: Whole blood assay for IL-1β production; assay type: cell-based; conditions: LPS-stimulated whole blood, IL-1β by ELISA
Outline: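 LPS-stimulated (5.0 ng/ml final) human whole blood incubated with test compound in saline (or plasma/PBS-5% DMSO for hydrophobic compounds) at 30° C for 16-18 hr. Plasma IL-1β then measured by ELISA at 1:200 dilution, against no-LPS, no-inhibitor and vehicle controls.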

[4] = substrate Suc-YVAD-pNA 80 μM, 37° C., pH 7.5

Row | SMILES | Ki [1, 4] [µM] | IC50 [2] [µM] | IC50 [3] [µM] | Ki [1] [µM]
1 | CC(C)[C@H](NC(=O)c1ccccc1)C(=O)N1CC[C@H]1C(=O)N[C@H](C=O)CC(=O)O [Example 24d] (Bz-Val-[Aze]-Asp-aldehyde) | 0.01 to 1 | 0.5 to 1 | 2.5 to 7.5 | –
2 | C[C@H](NC(=O)c1nccc2ccccc12)C(=O)N[C@@H](C)C(=O)N[C@H](C=O)CC(=O)O [Example 29c] | < 0.01 | 0.5 to 1 | < 2.5 | –
3 | C[C@H](NC(=O)c1ccccc1)C(=O)N1CCC[C@H]1C(=O)N[C@H](C=O)CC(=O)O [Example 7b] (Bz-Ala-Pro-Asp-aldehyde) | 0.01 to 1 | 0.5 to 1 | < 2.5 | –
4 | CC(C)NC(=O)N1CCN(C(=O)[C@H](C)NC(=O)c2nccc3ccccc23)[C@H](C(=O)N[C@H](C=O)CC(=O)O)C1 [Example 18e] | < 0.01 | 1 to 2 | < 2.5 | –
5 | CC(C)[C@H](NC(=O)c1nccc2ccccc12)C(=O)N1CCNCC1C(=O)N[C@H](C=O)CC(=O)O (stereo partly drawn) [Example 15b] | < 0.01 | 1 to 2 | 2.5 to 7.5 | –
6 | CC(C)[C@H](NC(=O)c1cccc(C(=O)c2ccccc2)c1)C(=O)N1CCC[C@H]1C(=O)N[C@H](C=O)CC(=O)O [Example 5az] | < 0.01 | 0.5 to 1 | < 2.5 | –
7 | CC(C)(C)[C@H](NC(=O)c1nccc2ccccc12)C(=O)N1CCC[C@H]1C(=O)N[C@H](C=O)CC(=O)O [Example 20a] | < 0.01 | 0.5 to 1 | < 2.5 | –
8 | COc1cc(C(=O)N[C@@H](C)C(=O)N2CCC[C@H]2C(=O)N[C@H](C=O)CC(=O)O)cc(OC)c1OC [Example 7k] | 0.01 to 1 | 0.5 to 1 | < 2.5 | –
9 | CC(C)[C@H](NC(=O)c1cc2ccccc2[nH]1)C(=O)N1CCC[C@H]1C(=O)N[C@H](C=O)CC(=O)O [Example 5b] | < 0.01 | 0.5 to 1 | < 2.5 | –
10 | CC(C)(C)[C@H](NC(=O)c1cccc2ccccc12)C(=O)N1CCC[C@H]1C(=O)N[C@H](C=O)CC(=O)O [Example 20b] | < 0.01 | 0.5 to 1 | > 7.5 | –
11 | CC(C)[C@H](NC(=O)c1ccc(O)cc1)C(=O)N[C@@H](C)C(=O)N[C@H](C=O)CC(=O)O [Example 29l] | 0.01 to 1 | 0.5 to 1 | < 2.5 | –
12 | COCC(=O)N1CCN(C(=O)[C@H](C)NC(=O)c2nccc3ccccc23)[C@H](C(=O)N[C@H](C=O)CC(=O)O)C1 [Example 18a] | 0.01 to 1 | 0.5 to 1 | < 2.5 | –
13 | COc1cc(C(=O)N[C@H](C(=O)N2CCC[C@H]2C(=O)N[C@H](C=O)CC(=O)O)C(C)C)cc(OC)c1O [Example 5n] | < 0.01 | 0.5 to 1 | 2.5 to 7.5 | < 0.01
14 | CC(=O)Nc1ccc(C(=O)N[C@@H](C)C(=O)N2CCC[C@H]2C(=O)N[C@H](C=O)CC(=O)O)cc1 [Example 7e] (Ac-[4Abz]APD-aldehyde) | 0.01 to 1 | > 2 | > 7.5 | –
15 | COc1c(C)cc(C(=O)N[C@H](C(=O)N2CCC[C@H]2C(=O)N[C@H](C=O)CC(=O)O)C(C)C)cc1C [Example 5ac] | < 0.01 | < 0.5 | < 2.5 | < 0.01
16 | CS(=O)(=O)CC[C@H](NC(=O)c1cc(Cl)c(O)c(Cl)c1)C(=O)N1CCC[C@H]1C(=O)N[C@H](C=O)CC(=O)O [Example 20p, 3-({1-[2-(3,5-dichloro-4-hydroxy-benizoylamino)-4-methanesulfonyl-butyryl]-pyrrolidine-2-carbonyl}-amino)-4-oxo-butyric acid] | < 0.01 | < 0.5 | < 2.5 | –
17 | C[C@H](NC(=O)c1cccc2ccccc12)C(=O)N[C@@H](C)C(=O)N[C@H](C=O)CC(=O)O [Example 29d] | < 0.01 | 0.5 to 1 | < 2.5 | –
18 | COc1cc(CC(=O)N[C@H](C(=O)N2CCC[C@H]2C(=O)N[C@H](C=O)CC(=O)O)C(C)C)ccc1OCc1ccccc1 [Example 5ak] | 0.01 to 1 | 0.5 to 1 | > 7.5 | 0.01 to 1
